The record followed here is patent US10570184B2, “GLP-1/glucagon receptor co-agonists for medical use” (Novo Nordisk A/S, priority 2014, dated 2020).

In the assay the target is T1, human GLP-1 receptor (Homo sapiens, UniProt P43220).
T1 construct: expressed in transfected cells; host or cells: membranes of BHK cells (parent BHKTS13), clone FCW467-12A
The assay can be described thus: Assay (I)(a) GLP-1 receptor activation, CRE luciferase reporter gene assay in BHK cells. In kind it is cell-based. The settings on record: without presence of serum albumin; read-out: GLP-1R EC50 (pM) [Assay (I)(a)]. In short, it runs like this: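 Stable BHK clone expressing human GLP-1 receptor with CRE-driven firefly luciferase, 5×10EE3 cells/well in medium with 2% ovalbumin and 0.2% Pluronic F-68. Compounds at 1×10EE-13 to 1×10EE-6 M final, 3 h at 37° C.; luminescence read, EC50 (pM) from four-parameter fit.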

Starred links: 1 amine or outer side, 2 acyl side, 3 side chain; linkers in the order of their positions; H or OH if unused. Non-standard residues stand in square brackets, D forms with d. Residues, ends and D or L forms follow the SMILES beside them. Groups on a side chain read outwards from the residue. *: point of attachment. C18 diacid = O=C(O)CCCCCCCCCCCCCCCCC(=O)*; γGlu = O=C(O)[C@H](CCC(=O)[*:2])N[*:1]; Ac4c = NC1(C(=O)O)CCC1; AEEA = NCCOCCOCC(=O)O; Aib = CC(C)(N)C(=O)O

T1 sequence (P43220 24-463): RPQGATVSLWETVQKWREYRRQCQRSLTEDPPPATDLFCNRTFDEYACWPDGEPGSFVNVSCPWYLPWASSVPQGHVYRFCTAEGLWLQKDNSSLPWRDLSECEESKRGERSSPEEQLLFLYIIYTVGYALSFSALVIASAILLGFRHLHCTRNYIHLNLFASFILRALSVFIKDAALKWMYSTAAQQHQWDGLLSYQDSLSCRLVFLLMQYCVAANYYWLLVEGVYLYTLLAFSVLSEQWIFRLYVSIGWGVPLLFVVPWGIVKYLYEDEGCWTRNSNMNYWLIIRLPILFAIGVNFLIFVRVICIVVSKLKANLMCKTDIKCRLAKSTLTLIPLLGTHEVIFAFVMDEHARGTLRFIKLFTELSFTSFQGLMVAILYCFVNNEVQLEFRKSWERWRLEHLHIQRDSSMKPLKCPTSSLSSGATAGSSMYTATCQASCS

For orientation: EC50 means the concentration giving half of the maximal effect. For the compound `CC[C@H](C)[C@H](NC(=O)[C@H](CC(C)C)NC(=O)[C@H](Cc1c[nH]c2ccccc12)NC(=O)[C@H](CCC(N)=O)NC(=O)[C@@H](NC(=O)[C@H](Cc1ccccc1)NC(=O)[C@H](CCC(=O)O)NC(=O)[C@H](CCCNC(=N)N)NC(=O)[C@H](C)NC(=O)[C@H](CCCNC(=N)N)NC(=O)[C@H](CCCNC(=N)N)NC(=O)[C@H](CO)NC(=O)[C@H](CCC(=O)O)NC(=O)[C@H](CC(C)C)NC(=O)[C@H](Cc1ccc(O)cc1)NC(=O)[C@H](CCCCN)NC(=O)[C@H](CO)NC(=O)[C@H](CC(C)C)NC(=O)[C@H](CC(=O)O)NC(=O)[C@H](CO)NC(=O)[C@@H](NC(=O)[C@H](Cc1ccccc1)NC(=O)[C@@H](NC(=O)CNC(=O)[C@H](CCC(N)=O)NC(=O)C1(NC(=O)[C@@H](N)Cc2c[nH]cn2)CCC1)[C@@H](C)O)[C@@H](C)O)C(C)C)C(=O)N[C@@H](CCCCNC(=O)CNC(=O)[C@H](CO)NC(=O)[C@H](CCC(=O)O)NC(=O)CNC(=O)[C@H](CO)NC(=O)CC[C@H](NC(=O)CC[C@H](NC(=O)CCCCCCCCCCCCCCCCC(=O)O)C(=O)O)C(=O)O)C(=O)N[C@H](C(N)=O)[C@@H](C)O` [Chem. 16, N^ε28-[2-[[(2S)-2-[[(2S)-4-carboxy-2-[[2-[[(2S)-2-[[(4S)-4-carboxy-4-[[(4S)-4-carboxy-4-(17-carboxyheptadecanoylamino)butanoyl]amino]butanoyl]amino]-3-hydroxypropanoyl]amino]acetyl]amino]butanoyl]amino]-3-hydroxypropanoyl]amino]acetyl]-[Acb2,Leu10,Glu15,Arg20,Glu21,Ile27,Lys28]-Glucagon amide] (HELM PEPTIDE1{H.[O=C(C1(N[*:1])CCC1)[*:2]].Q.G.T.F.T.S.D.L.S.K.Y.L.E.S.R.R.A.R.E.F.V.Q.W.L.I.K.T.[am]}|PEPTIDE2{[O=C(O)CCCCCCCCCCCCCCCCC(=O)[*:2]].[gGlu].[gGlu].S.G.E.S.G}$PEPTIDE1,PEPTIDE2,28:R3-8:R2$$$V2.0), the EC50 was determined as 5 pM.

On to `CC[C@H](C)[C@H](NC(=O)[C@H](CC(C)C)NC(=O)[C@H](Cc1c[nH]c2ccccc12)NC(=O)[C@H](CCC(N)=O)NC(=O)[C@@H](NC(=O)[C@H](Cc1ccccc1)NC(=O)[C@H](CCC(=O)O)NC(=O)[C@H](CCCNC(=N)N)NC(=O)[C@H](C)NC(=O)[C@H](CCCNC(=N)N)NC(=O)[C@H](CCCNC(=N)N)NC(=O)[C@H](CO)NC(=O)[C@H](CCC(=O)O)NC(=O)[C@H](CC(C)C)NC(=O)[C@H](Cc1ccc(O)cc1)NC(=O)[C@H](CCCNC(=N)N)NC(=O)[C@H](CO)NC(=O)[C@H](CC(C)C)NC(=O)[C@H](CC(=O)O)NC(=O)[C@H](CO)NC(=O)[C@@H](NC(=O)[C@H](Cc1ccccc1)NC(=O)[C@@H](NC(=O)CNC(=O)[C@H](CCC(N)=O)NC(=O)C1(NC(=O)[C@@H](N)Cc2c[nH]cn2)CCC1)[C@@H](C)O)[C@@H](C)O)C(C)C)C(=O)N[C@@H](CCCCNC(=O)CC[C@H](NC(=O)CC[C@H](NC(=O)COCCOCCNC(=O)COCCOCCNC(=O)CC[C@H](NC(=O)CC[C@H](NC(=O)CCCCCCCCCCCCCCCCC(=O)O)C(=O)O)C(=O)O)C(=O)O)C(=O)O)C(=O)N[C@H](C(N)=O)[C@@H](C)O` [Chem. 17, N^ε28-[(4S)-4-carboxy-4-[[(4S)-4-carboxy-4-[[2-[2 [2-[[2-[2-[2-[[(4S)-4-carboxy-4-[[(4S)-4-carboxy-4-(17-carboxyheptadecanoylamino)butanoyl]amino]butanoyl]amino]ethoxy]ethoxy]acetyl]amino]ethoxy]ethoxy]acetyl]amino]butanoyl]amino]butanoyl]-[Acb2,Leu10,Arg12,Glu15,Arg20,Glu21,Ile27,Lys28]-Glucagon amide] (H-H[Ac4c]QGTFTSDLSRYLESRRAREFVQWLIK([γGlu-γGlu-AEEA-AEEA-γGlu-γGlu-C18 diacid])T-NH2), for which the concentration for a half-maximal effect (EC50) was found to be 4 pM.

Consider `CC[C@H](C)[C@H](NC(=O)[C@H](CC(C)C)NC(=O)[C@H](Cc1c[nH]c2ccccc12)NC(=O)[C@H](CCC(N)=O)NC(=O)[C@@H](NC(=O)[C@H](Cc1ccccc1)NC(=O)[C@H](CCC(=O)O)NC(=O)[C@H](CCCNC(=N)N)NC(=O)[C@H](C)NC(=O)[C@H](CCCNC(=N)N)NC(=O)[C@H](CCCNC(=N)N)NC(=O)[C@H](CO)NC(=O)[C@H](CCC(=O)O)NC(=O)[C@H](CC(C)C)NC(=O)[C@H](Cc1ccc(O)cc1)NC(=O)[C@H](CCCCN)NC(=O)[C@H](CO)NC(=O)[C@H](CC(C)C)NC(=O)[C@H](CC(=O)O)NC(=O)[C@H](CO)NC(=O)[C@@H](NC(=O)[C@H](Cc1ccccc1)NC(=O)[C@@H](NC(=O)CNC(=O)[C@H](CCC(N)=O)NC(=O)C1(NC(=O)[C@@H](N)Cc2c[nH]cn2)CCC1)[C@@H](C)O)[C@@H](C)O)C(C)C)C(=O)N[C@@H](CCCCNC(=O)COCCOCCNC(=O)COCCOCCNC(=O)CC[C@H](NC(=O)CC[C@H](NC(=O)CCCCCCCCCCCCCCCCC(=O)O)C(=O)O)C(=O)O)C(=O)N[C@H](C(N)=O)[C@@H](C)O` [Chem. 18, N^ε28-[2-[2-[2-[[2-[2-[2-[[(4S)-4-carboxy-4-[[(4S)-4-carboxy-4-(17-carboxyheptadecanoylamino)butanoyl]amino]butanoyl]amino]ethoxy]ethoxy]acetyl]amino]ethoxy]ethoxy]acetyl]-[Acb2,Leu10,Glu15,Arg20,Glu21,Ile27,Lys28]-Glucagon amide] (H-H[Ac4c]QGTFTSDLSKYLESRRAREFVQWLIK([AEEA-AEEA-γGlu-γGlu-C18 diacid])T-NH2), for which the EC50 amounted to 4 pM.

On to `CC[C@H](C)[C@H](NC(=O)[C@H](CC(C)C)NC(=O)[C@H](Cc1c[nH]c2ccccc12)NC(=O)[C@H](CCC(N)=O)NC(=O)[C@@H](NC(=O)[C@H](Cc1ccccc1)NC(=O)[C@H](CC(=O)O)NC(=O)[C@H](CCCNC(=N)N)NC(=O)[C@H](C)NC(=O)[C@H](CCCNC(=N)N)NC(=O)[C@H](CCCNC(=N)N)NC(=O)[C@H](C)NC(=O)[C@H](CC(=O)O)NC(=O)[C@H](CC(C)C)NC(=O)[C@H](Cc1ccc(O)cc1)NC(=O)[C@H](CCCCN)NC(=O)[C@H](CO)NC(=O)[C@H](CC(C)C)NC(=O)[C@H](CC(=O)O)NC(=O)[C@H](CO)NC(=O)[C@@H](NC(=O)[C@H](Cc1ccccc1)NC(=O)[C@@H](NC(=O)CNC(=O)[C@H](CCC(N)=O)NC(=O)C(C)(C)NC(=O)[C@@H](N)Cc1c[nH]cn1)[C@@H](C)O)[C@@H](C)O)C(C)C)C(=O)N[C@@H](CC(N)=O)C(=O)N[C@@H](CCCCNC(=O)CC[C@H](NC(=O)CC[C@H](NC(=O)COCCOCCNC(=O)COCCOCCNC(=O)CC[C@H](NC(=O)CCCCCCCCCCCCCCCCC(=O)O)C(=O)O)C(=O)O)C(=O)O)C(N)=O` [Chem. 20, N^ε29-[(4S)-4-carboxy-4-[[(4S)-4-carboxy-4-[[2-[2-[2-[[2-[2-[2-[[(4S)-4-carboxy-4-(17-carboxyheptadecanoylamino)butanoyl]amino]ethoxy]ethoxy]acetyl]amino]ethoxy]ethoxy]acetyl]amino]butanoyl]amino]butanoyl]-[Aib2,Leu10,Ala16,Arg20,Ile27,Lys29]-Glucagon amide] (H-H[Aib]QGTFTSDLSKYLDARRARDFVQWLINK([γGlu-γGlu-AEEA-AEEA-γGlu-C18 diacid])-NH2; N-terminus assumed), for which the EC50 came out at 4 pM.

On to `CC[C@H](C)[C@H](NC(=O)[C@H](CC(C)C)NC(=O)[C@H](Cc1c[nH]c2ccccc12)NC(=O)[C@H](CCC(N)=O)NC(=O)[C@@H](NC(=O)[C@H](Cc1ccccc1)NC(=O)[C@H](CCC(=O)O)NC(=O)[C@H](CCCNC(=N)N)NC(=O)[C@H](C)NC(=O)[C@H](CCCNC(=N)N)NC(=O)[C@H](CCCNC(=N)N)NC(=O)[C@H](C)NC(=O)[C@H](CC(=O)O)NC(=O)[C@H](CC(C)C)NC(=O)[C@H](Cc1ccc(O)cc1)NC(=O)[C@H](CCCCN)NC(=O)[C@H](CO)NC(=O)[C@H](CC(C)C)NC(=O)[C@H](CC(=O)O)NC(=O)[C@H](CO)NC(=O)[C@@H](NC(=O)[C@H](Cc1ccccc1)NC(=O)[C@@H](NC(=O)CNC(=O)[C@H](CCC(N)=O)NC(=O)C(C)(C)NC(=O)[C@@H](N)Cc1c[nH]cn1)[C@@H](C)O)[C@@H](C)O)C(C)C)C(=O)N[C@@H](CC(N)=O)C(=O)N[C@@H](CCCCNC(=O)CC[C@H](NC(=O)CC[C@H](NC(=O)COCCOCCNC(=O)COCCOCCNC(=O)CC[C@H](NC(=O)CCCCCCCCCCCCCCCCC(=O)O)C(=O)O)C(=O)O)C(=O)O)C(N)=O` [Chem. 21, N^ε29-[(4S)-4-carboxy-4-[[(4S)-4-carboxy-4-[[2-[2-[2-[[2-[2-[2-[[(4S)-4-carboxy-4-(17-carboxyheptadecanoylamino)butanoyl]amino]ethoxy]ethoxy]acetyl]amino]ethoxy]ethoxy]acetyl]amino]butanoyl]amino]butanoyl]-[Aib2,Leu10,Ala16,Arg20,Glu21,Ile27,Lys29]-Glucagon amide] (H-H[Aib]QGTFTSDLSKYLDARRAREFVQWLINK([γGlu-γGlu-AEEA-AEEA-γGlu-C18 diacid])-NH2; N-terminus assumed), for which the EC50 came out at 3 pM.
